A short description of data set [1]: Compound precipitation observed during the proline incorporation assay. As to conditions: 100 μM in 0.1% DMSO. Type of data set: physicochemical. Also on record: key: ppt indicates compound precipitated during assay. The method, then: (§1) Cells were plated into 24-well culture dishes in DMEM/5% FBS and allowed to adhere overnight. The subconfluent cells were then starved overnight in DMEM/0.1% FBS and 150 uM L-ascorbic acid, prior to pre-treatment with or without FibroTech compounds for 4 hours at 10, 30 or 100 uM in 0.1% DMSO, final concentration. TGF-beta 1 at 5 ng/mL (Peprotech) and tritiated proline (Perkin-Elmer, (2,3,4,5-^3H)-proline) at 1 uCi/mL were added and the incubation continued for a further 44 hours. Treatments were performed in triplicate.

Data set [2] has as its system rat mesangial cells. Description: Toxicity rank and cell condition observed in the proline incorporation assay. Type of data set: cell-based. Also on record: key to Tox. Rank (4 = non-toxic): (4 = non-toxic). The note with it: no concentration stated. Here is the method: (§2) A well-characterised cloned rat mesangial cell line (Kakizaki Y, Kraft N, Atkins R C: Differential control of mesangial cell proliferation by interferon-gamma. Clin Exp Immunol 85:157-163, 1991) was cultured in DMEM (5 mM glucose) with 5% FBS, 100U/mL penicillin, and 100 ug/mL streptomycin in humidified 5% CO2 atmosphere at 37 C. Cells were used up to passage 40.
as §1

Data set [3] deals with rat mesangial cells. The data set can be described thus: Proline incorporation assay: reduction of TGF-beta 1 stimulated proline incorporation. Format: cell-based. As to conditions: Mesangial cell, 44 h, TGF-beta 1 5 ng/mL, read-out: Percentage Reduction of TGF-Beta 1 Stimulated Proline Incorporation; for inhibition at 10 µM: 10 μM compound; for inhibition at 30 µM: 30 μM compound; for inhibition at 100 µM: 100 μM compound. Here is the method:
as §2
Proline Incorporation Assay
as §1
After the incubation, cells were placed on ice and washed three times with ice cold PBS. They were then incubated on ice with 10% TCA for 30 minutes, followed by a final wash in cold 10% TCA. The cells were solubilized in 0.75 mL of 1M NaOH at 37 C for 45 minutes, or overnight at 4 C. Aliquots of the solubilized cells were neutralized in an equal amount of 1M HCl and counted in scintillant in a beta counter. Aliquots of neutralized solubilized cells were assayed for protein using the BioRad Bradford Protein Assay. Proline incorporation was normalized for protein content (cpm ^3H-proline incorporated per ug protein).
In order to compare the results of experiments performed on different days, the percentage inhibition of proline incorporation was calculated for each treatment by setting the TGF treatment at 0% inhibition and the control (incubation with media alone) at 100% inhibition.
Percentage Reduction of TGF-Beta 1 Stimulated Proline Incorporation: […]

`COc1cc(/C=C/c2nc3ccccc3c(=O)o2)ccc1OC(C)=O` [FT109, (E)-2-(4-Acetoxy-3-methoxystyryl)-4H-benzo[d][1,3]oxazin-4-one] yielded a melting point of 185 to 186 °C. Besides, the “Compound precipitated during assay” value in data set [1] was “ppt”. Also, the “Tox. Rank (4 = non-toxic)” value in the data set on rat mesangial cells [2] came out at 4. Besides, in the data set on rat mesangial cells [3], the inhibition at 10 µM amounted to 3%, the inhibition at 30 µM amounted to 16% and the inhibition at 100 µM was found to be 75%.

As for `COc1ccc(/C=C/c2nc3ncccc3c(=O)o2)cc1OC` [FT102, (E)-2-(3,4-Dimethoxystyryl)-4H-pyrido[2,3-d][1,3]oxazin-4-one], the melting point lay within 228 to 231 °C. The “Compound precipitated during assay” value in data set [1] is “ppt”. Besides, the “Tox. Rank (4 = non-toxic)” value in the data set on rat mesangial cells [2] is 4. For the same compound, in the data set on rat mesangial cells [3], the inhibition at 10 µM was 0%, the inhibition at 30 µM amounted to 0% and the inhibition at 100 µM was determined as 10%.

Turning to `C#CCOc1ccc(/C=C/c2nc3ccccc3c(=O)o2)cc1OC` [FT107, (E)-2-(3-Methoxy-4-propargyloxystyryl)-4H-benzo[d][1,3]oxazin-4-one], the melting point fell in the range of 177 to 178 °C. In data set [1], the “Compound precipitated during assay” value is “ppt”. Further, the “Tox. Rank (4 = non-toxic)” value in the data set with rat mesangial cells [2] turned out to be 4. Moreover, in the data set with rat mesangial cells [3], the inhibition at 10 µM is 0%, the inhibition at 30 µM came to 0% and the inhibition at 100 µM came to 0%.

One may read the melting point as the temperature of the solid-liquid transition.

For the origin of these results see patent publication US9951087B2, “Fused ring analogues of anti-fibrotic agents” (Fibrotech Therapeutics PTY LTD, priority 2009, dated 2018).
